Laboratory results taken from the NIST ThermoML archive (doi:10.1016/j.tca.2017.05.009).
± gives the expanded uncertainty stated by the source.

Details: Crystal; DTA

Structure (SMILES): [Sn] [tin]
- Normal melting temperature: 231.90 ± 2 °C
